Values of other authors, collected in patent US20240316039A1, “METHOD OF REDUCING ELEVATED INTRAOCULAR PRESSURE” (SUN PHARMA ADVANCED RESEARCH COMPANY LIMITED, priority 2021, published 2024).
Where two headings read alike, the source gives them in different places.

System: ocular hypertensive eyes and normotensive eyes

## Brc1c(NC2=NCCN2)ccc2nccnc12 [Brimonidine]
In vivo
  duration of effect: less than 12 hours
  time of peak effect after instillation: ≤ 2 h
Normotensive eyes (less than 21 mm Hg)
  peak IOP reduction: 6-18%
Ocular hypertensive eyes
  peak IOP reduction: 20-25%
